pEC50, pIC50: −log10 of the molar value.
What was measured:
Type in all cases: cell-based
[1] = tested on: TNFα expression in ESdM cells; test: ELISA assay: TNFα expression in ESdM cells stimulated with LPS and NECA or adenosine; settings: for pIC50: 24 h, LPS-induced TNFα expression in the presence of NECA (100 nM NECA, 100 ng/ml LPS), read-out: EC50 (the source's name); for TNF alpha expression: 100 nM NECA, various antagonist concentrations; for functional character at human A2B adenosine receptors: conclusion from the ELISA functional experiment
Procedure: With the ELISA assay in Fig. 5 the effects of adenosine receptor antagonists were investigated. […] In the presence of the antagonists to be investigated, the influence on the TNFα expression was analyzed. The cytokine expression was determined in the ELISA.
The determined EC50 concentration amounted to 60 nM. ESdM cells were stimulated with 100 nM of NECA and 100 ng/ml of LPS, and the A2B antagonist 1a was added to the stimulated cells at various concentrations for 24 h. The supernatants of the cells were investigated for TNFα expression in an ELISA.
Example 53: ELISA Assay The ELISA assay was used to investigate the effects of adenosine antagonists. […] In the presence of the antagonists to be investigated, their influence on TNFα expression was analyzed. The cytokine expression was determined in the ELISA (Fig. 5).
To evaluate, whether ESdM cells can be stimulated by Adenosine 3 x 10^5 ESdM cells were seeded in 12 wells. The next day the cells have been stimulated with 1 µM Adenosine (Sigma-Aldrich) and different concentrations of LPS (10 ng/ml, 100 ng/ml and 500 ng/ml, Sigma-Aldrich). Supernatants were collected 24 hours later and were analysed for TNFα expression in an ELISA (EBioscience). As shown here (Fig. 6A), ESdM cells are sensitive for stimulation with 1 µM adenosine. Best results are achieved with a LPS concentration of 100 ng/ml, whereas 500 ng/ml of LPS provide […] detectable TNFα values.
To examine, if ESdM cells can also be stimulated with the synthetic adenosine receptor agonist NECA, ESdM cells were seeded in 12 wells in the same concentration as mentioned before. These cells were treated with different concentrations of NECA (1 µM and 100 nM) and 100 ng/ml LPS. The next day supernatants were collected and analysed for TNFα expression.
To analyse the effect of the A2B antagonist 1a, 3 x 10^5 ESdM cells were seeded in 12 wells. The next day cells were stimulated with 100 nM NECA, 100 ng/ml LPS and various concentrations (10 pM-10 nM) of A2B-receptor antagonist 1a Supernatants of the cells were investigated for TNFα expression in an ELISA.

human A2B receptor = target: T1, human A2B receptor (Homo sapiens, UniProt P29275); test: cAMP assay in HEK cells recombinantly expressing the human A2B receptor
T1 construct: expressed in transfected cells; host or cells: HEK cells
T1 sequence (P29275 1-332): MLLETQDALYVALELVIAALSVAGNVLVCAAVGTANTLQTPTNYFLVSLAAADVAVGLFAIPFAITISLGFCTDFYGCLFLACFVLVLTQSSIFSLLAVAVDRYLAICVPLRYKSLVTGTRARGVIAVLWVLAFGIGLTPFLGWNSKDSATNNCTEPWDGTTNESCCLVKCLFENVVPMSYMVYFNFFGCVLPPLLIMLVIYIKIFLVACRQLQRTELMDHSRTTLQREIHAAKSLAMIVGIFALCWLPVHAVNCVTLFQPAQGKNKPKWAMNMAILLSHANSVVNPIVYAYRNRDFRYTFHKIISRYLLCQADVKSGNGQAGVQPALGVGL
Procedure: Example 52: cAMP assay The preparation of cAMP binding protein was carried out as previously described by Nordstedt and Fredholm (Anal. Biochem. 1990, 189, 231-234). 5'-(N-Ethylcarboxamido)adenosine (NECA) was obtained from Sigma. For cAMP experiments HEK cells, expressed the human recombinant A2B receptor were removed from a confluent 175 cm^2 flask, transferred into a falcon tube and spun down at 200 g, 4 °C for 5 min. After removal of the supernatant, the cell pellet was resuspended in Hank's buffered saline solution (HBSS, pH 7.4). 200 µl of the cell solution (∼ 200.000 cells per well) with 2 U/ml ADA was transferred into each well of a 24-well plate. After an incubation time of 1.5 h at 37 °C, 5 % CO2, 25 µL of the phosphodiesterase (PDE) inhibitor Ro-20-1724 (40 µM f.c.), dissolved in 100 % HBSS-puffer was added to each well and incubated for 10 min at 37 °C. […] After 10 min incubation time 12.5 µl of agonist (NECA) dissolved in the same buffer as well, was added and incubated for 15 min at 37 °C. NECA was incubated in concentrations of 10 µM and 1 µM alone as an control experiment. […] Well plates were put on ice and each well was subsequently homogenised by pipetting 6-7 times up and down. Competition binding experiments were performed in a final volume of 120 µl containing 50 µl of cell lysates, 30 µl of [^3H]cAMP (f.c. 3 nM) in lysis buffer (4 mM EDTA, 0.01 % trition X-100) and 40 µl of cAMP binding protein in the same buffer (50 µg protein per vial). Total binding was determined in the absence of cold cAMP and nonspecific binding was determined in the absence of cold cAMP and without binding protein. For a cAMP standard curve 50 µl of known cAMP concentration was put instead of 50 µl cell lysate. […] Then, filters were transferred to vials, incubated for 9 h with 2.5 mL of scintillation cocktail (Beckmann Coulter), and counted in a liquid scintillation counter (Tricarb 2700TR) with a counting efficiency of ∼ 54%.

[2] = target: T2, human adenosine A2B receptor (Homo sapiens, UniProt P29275); test: cAMP assay in CHO cells recombinantly expressing the human adenosine A2B receptor (NECA dose-response curve shift); settings: for NECA-induced increase in cAMP formation / mode of antagonism (NECA curve shifted to the right): single antagonist concentration, ~5-fold of the Ki value
T2 construct: expressed in transfected cells; host or cells: CHO cells
T2 sequence (P29275 1-332): T1 sequence (P29275 1-332)
Procedure: Dose-response curves for the agonist NECA were determined in the absence and in the presence of a single concentration of the new antagonists 1d and 1f, using a ∼ 5-fold concentration of the Ki-values.

SMILES | pIC50 ([1]; ESdM cells) | TNF alpha expression ([1]; ESdM cells, 100 ng/ml LPS) | functional character at human A2B adenosine receptors [1] | further results
Cn1c(=O)c2[nH]c(-c3cn(Cc4cccc(C(F)(F)F)c4)nn3)nc2n(C)c1=O [1a, 1,3-Dimethyl-8-(1-(3-(trifluoromethyl)benzyl)-1H-1,2,3-triazol-4-yl)-1H-purine-2,6(3H,7H)-dione] | 5.59 | dose-dependent decrease | confirmed as antagonists | pEC50 ([1]; ESdM cells, 100 nM NECA and 100 ng/ml LPS, antagonist for 24 h, TNFα in supernatant (Fig. 7A), read-out: EC50 concentration): 7.22; NECA-induced increase in cAMP formation (human A2B receptor; NECA 10 µM and 1 µM, antagonist 5 µM): inhibited; effect on cAMP levels of the compound itself (human A2B receptor; compound alone): no effect
CCn1c(=O)c2[nH]c(-c3cn(Cc4cccc(C(F)(F)F)c4)nn3)nc2n(CC)c1=O [1b, 1,3-Diethyl-8-(1-(3-(trifluoromethyl)benzyl)-1H-1,2,3-triazol-4-yl)-1H-purine-2,6(3H,7H)-dione] | 5.96 | dose dependent decrease | confirmed as antagonists | –
CCCn1c(=O)[nH]c2nc(-c3cn(Cc4cccc(C(F)(F)F)c4)nn3)[nH]c2c1=O [1d, 1-Propyl-8-(1-(3-(trifluoromethyl)benzyl)-1H-1,2,3-triazol-4-yl)-1H-purine-2,6(3H,7H)-dione] | 5.95 | dose dependent decrease | confirmed as antagonists | NECA-induced increase in cAMP formation [2]: inhibited; mode of antagonism (NECA curve shifted to the right) [2]: competitive antagonism
CCNC(=O)[C@H]1O[C@@H](n2cnc3c(N)ncnc32)[C@H](O)[C@@H]1O [NECA, 5'-(N-Ethylcarboxamido)adenosine, reference compound] | – | – | – | stimulation of TNFα expression in ESdM cells following LPS stimulation ([1]; 1 µM and 100 nM NECA, 100 ng/ml LPS): sensitive; cAMP formation (human A2B receptor; agonist, 10 µM and 1 µM): concentration-dependent increase; cAMP formation ([2]; agonist dose-response curve): concentration-dependent increase
Nc1ncnc2c1ncn2[C@@H]1O[C@H](CO)[C@@H](O)[C@H]1O [adenosine] | – | – | – | stimulation of TNFα expression in ESdM cells following LPS stimulation ([1]; 1 µM adenosine, LPS 10, 100 and 500 ng/ml, 24 hours): sensitive

Second part, led by results:

pIC50 ([1]; ESdM cells) | SMILES | TNF alpha expression ([1]; ESdM cells, 100 ng/ml LPS) | functional character at human A2B adenosine receptors [1] | further results
5.87 | C#CCn1c(=O)c2[nH]c(-c3cn(Cc4cccc(C(F)(F)F)c4)nn3)nc2n(C)c1=O [1f, 3-Methyl-1-(prop-2-ynyl)-8-(1-(3-(trifluoromethyl)-benzyl)-1H-1,2,3-triazol-4-yl)-1H-purine-2,6(3H,7H)-dione] | dose dependent decrease | confirmed as antagonists | NECA-induced increase in cAMP formation [2]: inhibited; mode of antagonism (NECA curve shifted to the right) [2]: competitive antagonism
5.63 | Cn1c(=O)n(CC2CC2)c(=O)c2[nH]c(-c3cn(Cc4cccc(C(F)(F)F)c4)nn3)nc21 [1g, 1-(Cyclopropylmethyl)-3-methyl-8-(1-(3-(trifluoromethyl)benzyl)-1H-1,2,3-triazol-4-yl)-1H-purine-2,6(3H,7H)-dione] | dose dependent decrease | confirmed as antagonists | –
